Laboratory results: patent US8476197B2, “Aminopropenoates as fungicides” (priority 2009, dated 2013)
Marks after values point to notes of the source that are not given here.

settings: pH 2.3

| Compound | Log P |
| --- | --- |
| CCOC(=O)C(C#N)=C(NC1CC1)c1cccnc1Cl [Compound 764] | 2.5 |
| CCOC(=O)C(C#N)=C(NC(C)C)c1cccnc1Cl [Compound 823] | 2.54 |
| COC(=O)C(C#N)=C(NC(C)C#N)c1cccnc1Cl (centres unmarked) [Compound 869] | 1.85 |

same assay, conditions: pH 2.7

| Compound | Log P |
| --- | --- |
| CCOC(=O)C(C#N)=C(NC(C)(C)C(C)(C)C)c1sccc1Br [Compound 755] | 4.67^[a] |
| CCC(CC)NC(=C(C#N)C(=O)OC)c1cccnc1Cl [Compound 756] | 2.76^[a] |
| COC(=O)C(C#N)=C(NC(C)CC(F)(F)F)c1cccnc1Cl (centres unmarked) [Compound 757] | 2.34^[a] |
| COC(=O)C(C#N)=C(NC(C)(C)CC(F)(F)F)c1cccnc1Cl [Compound 758] | 2.34^[a] |
| COC(=O)C(C#N)=C(NC1CC1F)c1cccnc1Cl (centres unmarked) [Compound 759] | 1.87^[a] |
| CCOC(=O)C(C#N)=C(NC(C)C1CC=CCC1)c1cccnc1Cl (centres unmarked) [Compound 760] | 3.9^[a] |
| CCOC(=O)C(C#N)=C(NC1CCCCC1)c1cccnc1Cl [Compound 761] | 3.55^[a] |
| CCC(NC(=C(C#N)C(=O)OC)c1cccnc1Cl)C1CCCCC1 (centres unmarked) [Compound 762] | 4.07^[a] |
| COC(=O)C(C#N)=C(NC1CCCC1)c1cccnc1Cl [Compound 763] | 2.61^[a] |
| COC(=O)C(C#N)=C(NC(C1CC1)C1CC1)c1cccnc1Cl [Compound 765] | 2.85^[a] |
| COC(=O)C(C#N)=C(NC(C)CC1CC1)c1cccnc1Cl (centres unmarked) [Compound 766] | 2.84^[a] |
| COC(=O)C(C#N)=C(NC(C)C1(Cl)CC1)c1cccnc1Cl (centres unmarked) [Compound 768] | 2.72^[a] |
| CCOC(=O)C(C#N)=C(NC(C)C1(Cl)CC1)c1sccc1C(F)(F)F (centres unmarked) [Compound 769] | 4.04^[a] |
| COC(=O)C(C#N)=C(NC(C)C1(Cl)CC1)c1sc(C)nc1C(F)(F)F (centres unmarked) [Compound 770] | 3.53^[a] |
| CCOC(=O)C(C#N)=C(NC(C)C1(Cl)CC1)c1sccc1Br (centres unmarked) [Compound 771] | 3.94^[a] |
| CCOC(=O)C(C#N)=C(NC(C)C1(Cl)CC1)c1sc(C)nc1C(F)(F)F (centres unmarked) [Compound 772] | 3.89^[a] |
| CCOC(=O)C(C#N)=C(NC(C)C1(Cl)CC1)c1ccsc1Br (centres unmarked) [Compound 774] | 3.92^[a] |
| COC(=O)C(C#N)=C(NC(C)(C)C)c1cccnc1Cl [Compound 775] | 2.31^[a] |
| CCOC(=O)/C(C#N)=C(\NC(C)(C)C)c1nc(SC)ncc1Br [Compound 776] | 3.82^[a] |
| COC(=O)C(C#N)=C(NCC#N)c1sc(C)nc1C(F)(F)F [Compound 787] | 2.01^[a] |
| CCOC(=O)C(C#N)=C(NCC#N)c1cn(C)nc1C(F)F [Compound 788] | 1.79^[a] |
| CCOC(=O)C(C#N)=C(NCC#N)c1sccc1Br [Compound 789] | 2.33^[a] |
| CCOC(=O)C(C#N)=C(NCC#N)c1sc(C)nc1C(F)(F)F [Compound 790] | 2.35^[a] |
| CCOC(=O)C(C#N)=C(NCC#N)c1ccsc1Br [Compound 791] | 2.32^[a] |

| Compound | Log P |
| --- | --- |
| COC(=O)C(C#N)=C(NC1CCC1)c1cccnc1Cl [Compound 793] | 2.34^[a] |
| CCOC(=O)C(C#N)=C(NC1CCC1)c1nc(Cl)ccc1Cl [Compound 794] | 3.58^[a] |
| CCOC(=O)C(C#N)=C(NC1CCC1)c1ncc(Cl)cc1Cl [Compound 795] | 3.67^[a] |
| CCOC(=O)C(C#N)=C(NC1CCC1)c1cnc(Cl)cc1Cl [Compound 796] | 3.55^[a] |
| CCOC(=O)C(C#N)=C(NC1CCC1)c1cc(Cl)ncc1Cl [Compound 797] | 3.55^[a] |
| CCOC(=O)C(C#N)=C(NC1CCC1)c1ccncc1Cl [Compound 798] | 2.84^[a] |
| CCOC(=O)C(C#N)=C(NC1CCC1)c1cccnc1C(F)F [Compound 799] | 2.76^[a] |
| CCOC(=O)C(C#N)=C(NC1CCC1)c1cnccc1C(F)(F)F [Compound 800] | 3.06^[a] |
| CCOC(=O)C(C#N)=C(NC1CCC1)c1cc(Cl)cc(Cl)n1 [Compound 801] | 3.79^[a] |
| CCOC(=O)C(C#N)=C(NC1CCC1)c1ccnc(Cl)c1Cl [Compound 802] | 3.52^[a] |
| CCOC(=O)C(C#N)=C(NC1CCC1)c1ccncc1Br [Compound 803] | 2.9^[a] |
| CCOC(=O)C(C#N)=C(NC1CCC1)c1ccncc1F [Compound 804] | 2.66^[a] |
| CCOC(=O)C(C#N)=C(NC1CCC1)c1ccncc1C(F)(F)F [Compound 805] | 3.6^[a] |
| COC(=O)C(C#N)=C(NC(C)C)c1cccnc1Cl [Compound 822] | 2.11^[a] |
| CCOC(=O)C(C#N)=C(NC(C)C)c1cccnc1Cl [Compound 823] | 2.66 |
| CCOC(=O)C(C#N)=C(NC(C)CC)c1cc(C)oc1C (centres unmarked) [Compound 825] | 3.63^[a] |
| CCC(C)NC(=C(C#N)C(=O)OC)c1cccnc1Cl (centres unmarked) [Compound 826] | 2.55^[a] |
| CCOC(=O)C(C#N)=C(NC(C)CC)c1sccc1Br (centres unmarked) [Compound 827] | 3.76^[a] |
| CCOC(=O)C(C#N)=C(NC(C)CC)c1sccc1C(F)(F)F (centres unmarked) [Compound 829] | 3.83^[a] |
| CCC(C)NC(=C(C#N)C(=O)OC)c1sc(C)nc1C(F)(F)F (centres unmarked) [Compound 831] | 3.23^[a] |
| CCOC(=O)C(C#N)=C(NC(C)CC)c1cn(C)nc1C(F)F (centres unmarked) [Compound 833] | 2.82^[a] |
| CCOC(=O)C(C#N)=C(NC(C)CC)c1sc(C)nc1C(F)(F)F (centres unmarked) [Compound 835] | 3.59^[a] |
| CCCCCC(C)NC(=C(C#N)C(=O)OCC)c1sccc1Br (centres unmarked) [Compound 844] | 5.03^[a] |
| CCCCCC(C)NC(=C(C#N)C(=O)OCC)c1sccc1C(F)(F)F (centres unmarked) [Compound 847] | 5.05^[a] |

| Compound | Log P |
| --- | --- |
| CCCCCC(C)NC(=C(C#N)C(=O)OC)c1sc(C)nc1C(F)(F)F (centres unmarked) [Compound 850] | 4.41^[a] |
| CCCCCC(C)NC(=C(C#N)C(=O)OCC)c1cn(C)nc1C(F)F (centres unmarked) [Compound 853] | 3.94^[a] |
| CCCCCC(C)NC(=C(C#N)C(=O)OCC)c1sc(C)nc1C(F)(F)F (centres unmarked) [Compound 856] | 4.81^[a] |
| CCCCC[C@H](C)N/C(=C(/C#N)C(=O)OCC)c1ccsc1Br [Compound 861] | 4.94^[a] |
| CCCCCC(C)N/C(=C(/C#N)C(=O)OCC)c1ccsc1Br (centres unmarked) [Compound 862] | 4.99^[a] |
| CCCC(C)NC(=C(C#N)C(=O)OCC)c1cn(C)nc1C(F)F (centres unmarked) [Compound 864] | 3.19^[a] |
| CCCC(C)NC(=C(C#N)C(=O)OCC)c1sccc1C(F)(F)F (centres unmarked) [Compound 865] | 4.21^[a] |
| CCCC(C)NC(=C(C#N)C(=O)OC)c1sc(C)nc1C(F)(F)F (centres unmarked) [Compound 866] | 3.61^[a] |
| CCCC(C)NC(=C(C#N)C(=O)OCC)c1sccc1Br (centres unmarked) [Compound 867] | 4.16^[a] |
| CCCC(C)NC(=C(C#N)C(=O)OCC)c1sc(C)nc1C(F)(F)F (centres unmarked) [Compound 868] | 3.96^[a] |
| CCOC(=O)C(C#N)=C(NC(C)C1CCCCC1)c1cn(C)nc1C(F)F (centres unmarked) [Compound 872] | 3.92^[a] |
| CCOC(=O)C(C#N)=C(NC(C)C1CCCCC1)c1sccc1C(F)(F)F (centres unmarked) [Compound 873] | 5.11^[a] |
| COC(=O)C(C#N)=C(NC(C)C1CCCCC1)c1sc(C)nc1C(F)(F)F (centres unmarked) [Compound 874] | 4.46^[a] |
| CCOC(=O)C(C#N)=C(NC(C)C1CCCCC1)c1sccc1Br (centres unmarked) [Compound 875] | 5.11^[a] |
| CCOC(=O)C(C#N)=C(NC(C)C1CCCCC1)c1sc(C)nc1C(F)(F)F (centres unmarked) [Compound 876] | 4.86^[a] |
| CCOC(=O)C(C#N)=C(NC(C)C1CCCCC1)c1ccsc1Br (centres unmarked) [Compound 877] | 5.03^[a] |
| CCOC(=O)C(C#N)=C(NC(C)C1CC1)c1cc(C)oc1C (centres unmarked) [Compound 879] | 3.63^[a] |
| COC(=O)C(C#N)=C(NC(C)C1CC1)c1cccnc1Cl (centres unmarked) [Compound 880] | 2.58^[a] |
| CCOC(=O)C(C#N)=C(NC(C)C1CC1)c1cn(C)nc1C(F)F (centres unmarked) [Compound 882] | 2.88^[a] |
| CCOC(=O)C(C#N)=C(NC(C)C1CC1)c1sccc1C(F)(F)F (centres unmarked) [Compound 883] | 3.83^[a] |
| COC(=O)C(C#N)=C(NC(C)C1CC1)c1sc(C)nc1C(F)(F)F (centres unmarked) [Compound 884] | 3.27^[a] |
| CCOC(=O)C(C#N)=C(NC(C)C1CC1)c1sccc1Br (centres unmarked) [Compound 885] | 3.76^[a] |
| CCOC(=O)C(C#N)=C(NC(C)C1CC1)c1sc(C)nc1C(F)(F)F (centres unmarked) [Compound 886] | 3.61^[a] |

same assay, conditions: pH 7.5

| Compound | Log P |
| --- | --- |
| CCOC(=O)C(C#N)=C(NC1CC1)c1cccnc1Cl [Compound 764] | 2.36 |
| CCOC(=O)C(C#N)=C(NC(C)CBr)c1cccnc1Cl (centres unmarked) [Compound 767] | 2.79 |
| CCOC(=O)C(C#N)=C(NC(C)CC#N)c1cccnc1Cl (centres unmarked) [Compound 792] | 2.13 |
| CCOC(=O)C(C#N)=C(NC(C)C)c1cccnc1Cl [Compound 823] | 2.53 |
| COC(=O)C(C#N)=C(NC(C)C#N)c1cccnc1Cl (centres unmarked) [Compound 869] | 1.86 |
| COC(=O)C(C#N)=C(N[C@@H](C)C1CCCCC1)c1cccnc1Cl [Compound 870] | 3.76 |
| COC(=O)C(C#N)=C(N[C@H](C)C1CCCCC1)c1cccnc1Cl [Compound 871] | 3.76 |
| CCOC(=O)C(C#N)=C(NC(C)C1CC1)c1cccnc1Cl (centres unmarked) [Compound 878] | 2.93 |
| CCOC(=O)C(C#N)=C(NC(C)C1CC1)c1ccc(C)nc1Cl (centres unmarked) [Compound 881] | 3.32 |
